From patent US8629157B2, “Pyrrolidine compounds which modulate the CB2 receptor” (Boehringer Ingelheim International GmbH, priority 2009, dated 2014)

Target: human CB2R (Homo sapiens, UniProt P34972)
Experiment: CB2R mediated modulation of cAMP synthesis
Format: cell-based
Settings: not given
Procedure, shortened: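 cAMP measured with the DiscoverX-XS kit after 30 min, 37° C. compound exposure of human CB2R-expressing CHO cells stimulated by 10 uM forskolin (1 mM IBMX, 0.25% BSA).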

Sequence of human CB2R (P34972 whole entry): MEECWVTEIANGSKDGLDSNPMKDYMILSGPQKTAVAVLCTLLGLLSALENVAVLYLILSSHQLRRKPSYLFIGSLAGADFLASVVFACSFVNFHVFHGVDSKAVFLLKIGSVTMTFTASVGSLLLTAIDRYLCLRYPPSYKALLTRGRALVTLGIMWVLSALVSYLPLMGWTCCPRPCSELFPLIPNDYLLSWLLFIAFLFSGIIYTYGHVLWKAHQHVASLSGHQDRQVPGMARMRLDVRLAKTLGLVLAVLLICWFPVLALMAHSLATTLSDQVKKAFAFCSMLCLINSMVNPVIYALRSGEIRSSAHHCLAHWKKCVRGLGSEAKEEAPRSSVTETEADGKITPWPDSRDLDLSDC

Row | SMILES | EC50 [nM]
1 | COc1ccc(N2C(=O)CC[C@H]2C(=O)Nc2cc(C(C)(C)C)no2)nc1 [(S)-1-(5-Methoxy-pyridin-2-yl)-5-oxo-pyrrolidine-2-carboxylic acid (3-tert-butyl-isoxazol-5-yl)-amide] | 22.1
2 | Cc1ccc(N2C(=O)CC[C@H]2C(=O)Nc2cc(C(C)(C)C)no2)nc1 [(S)-1-(5-Methyl-pyridin-2-yl)-5-oxo-pyrrolidine-2-carboxylic acid (3-tert-butyl-isoxazol-5-yl)-amide] | 15.4
3 | CC(C)(C)c1cc(NC(=O)[C@@H]2CCCN2c2ccc(C(F)(F)F)cn2)on1 [(S)-1-(5-Trifluoromethyl-pyridin-2-yl)-pyrrolidine-2-carboxylic acid (3-tert-butyl-isoxazol-5-yl)-amide] | 0.023
4 | CC(C)(C)c1csc(NC(=O)[C@@H]2CCCN2c2ccc(C(F)(F)F)cn2)n1 [(S)-1-(5-Trifluoromethyl-pyridin-2-yl)-pyrrolidine-2-carboxylic acid (4-tert-butyl-thiazol-2-yl)-amide] | 8.56
5 | CC(C)(C)c1cc(NC(=O)[C@@H]2CCC(=O)N2c2ccc(C(F)(F)F)c(F)n2)on1 [(S)-1-(6-Fluoro-5-trifluoromethyl-pyridin-2-yl)-5-oxo-pyrrolidine-2-carboxylic acid (3-tert-butyl-isoxazol-5-yl)-amide] | 8.05
6 | CCCS(=O)(=O)N1CCC[C@H]1C(=O)Nc1cc(C(C)(C)C)on1 [(S)-1-(Propane-1-sulfonyl)-pyrrolidine-2-carboxylic acid (5-tert-butyl-isoxazol-3-yl)-amide] | 120
7 | CC(C)(C)c1cc(NC(=O)[C@@H]2CCCN2CC2CCOC2)on1 (stereo partly drawn) [(S)-1-(Tetrahydro-furan-3-ylmethyl)-pyrrolidine-2-carboxylic acid (3-tert-butyl-isoxazol-5-yl)-amide] | 0.116
8 | CC(C)(C)c1cc(NC(=O)[C@@H]2CCCN2CC2CCCOC2)on1 (stereo partly drawn) [(S)-1-(Tetrahydro-pyran-3-ylmethyl)-pyrrolidine-2-carboxylic acid (3-tert-butyl-isoxazol-5-yl)-amide] | 0.376
9 | CC(C)(C)c1csc(NC(=O)[C@@H]2CCCN2C2CCOCC2)n1 [(S)-1-(Tetrahydro-pyran-4-yl)-pyrrolidine-2-carboxylic acid (4-tert-butyl-thiazol-2-yl)-amide] | 279
10 | O=C(Nc1nc2cc(Cl)c(Cl)cc2[nH]1)[C@@H]1CCCN1C1CCOCC1 [(S)-1-(Tetrahydro-pyran-4-yl)-pyrrolidine-2-carboxylic acid (5,6-dichloro-1H-benzimidazol-2-yl)-amide] | 165
11 | CC(C)(C)Cc1cc(NC(=O)[C@@H]2CCCN2C2CCOCC2)on1 [(S)-1-(Tetrahydro-pyran-4-yl)-pyrrolidine-2-carboxylic acid [3-(2,2-dimethyl-propyl)-isoxazol-5-yl]-amide] | 14.9
12 | O=C(Nc1nc(-c2ccccc2)ns1)[C@@H]1CCCN1CC1CCOCC1 [(S)-1-(Tetrahydro-pyran-4-ylmethyl)-pyrrolidine-2-carboxylic acid (3-phenyl-1,2,4-thiadiazol-5-yl)-amide] | 40
13 | CC(C)(C)c1cc(NC(=O)[C@@H]2CCCN2CC2CCOCC2)on1 [(S)-1-(Tetrahydro-pyran-4-ylmethyl)-pyrrolidine-2-carboxylic acid (3-tert-butyl-isoxazol-5-yl)-amide] | 0.438
14 | CC(C)(C)c1csc(NC(=O)[C@@H]2CCCN2CC2CCOCC2)n1 [(S)-1-(Tetrahydro-pyran-4-ylmethyl)-pyrrolidine-2-carboxylic acid (4-tert-butyl-thiazol-2-yl)-amide] | 17.6
15 | O=C(Nc1nc2cc(Cl)c(Cl)cc2[nH]1)[C@@H]1CCCN1CC1CCOCC1 [(S)-1-(Tetrahydro-pyran-4-ylmethyl)-pyrrolidine-2-carboxylic acid (5,6-dichloro-1H-benzimidazol-2-yl)-amide] | 56.2
16 | O=C(Nc1nc2cc(Cl)ccc2[nH]1)[C@@H]1CCCN1CC1CCOCC1 [(S)-1-(Tetrahydro-pyran-4-ylmethyl)-pyrrolidine-2-carboxylic acid (5-chloro-1H-benzimidazol-2-yl)-amide] | 48.6
17 | CCc1sc(NC(=O)[C@@H]2CCCN2CC2CCOCC2)nc1-c1ccccc1 [(S)-1-(Tetrahydro-pyran-4-ylmethyl)-pyrrolidine-2-carboxylic acid (5-ethyl-4-phenyl-thiazol-2-yl)-amide] | 10.9
18 | CC(C)(C)c1nnc(NC(=O)[C@@H]2CCCN2CC2CCOCC2)s1 [(S)-1-(Tetrahydro-pyran-4-ylmethyl)-pyrrolidine-2-carboxylic acid (5-tert-butyl-1,3,4-thiadiazol-2-yl)-amide] | 16.5
19 | O=C(Nc1ccc(C(F)(F)F)cn1)[C@@H]1CCCN1CC1CCOCC1 [(S)-1-(Tetrahydro-pyran-4-ylmethyl)-pyrrolidine-2-carboxylic acid (5-trifluoromethyl-pyridin-2-yl)-amide] | 212

Row | SMILES | EC50 [nM]
20 | O=C(Nc1nc2ccc(Cl)cc2s1)[C@@H]1CCCN1CC1CCOCC1 [(S)-1-(Tetrahydro-pyran-4-ylmethyl)-pyrrolidine-2-carboxylic acid (6-chloro-benzothiazol-2-yl)-amide] | 188
21 | CC(C)(C)Cc1cc(NC(=O)[C@@H]2CCCN2CC2CCOCC2)on1 [(S)-1-(Tetrahydro-pyran-4-ylmethyl)-pyrrolidine-2-carboxylic acid [3-(2,2-dimethyl-propyl)-isoxazol-5-yl]-amide] | 3.46
22 | CC(C)(CO)c1cc(NC(=O)[C@@H]2CCCN2C2CCOCC2)on1 [(S)-1-(tetrahydro-pyran-4-yl)-pyrrolidine-2-carboxylic acid [3-(2-hydroxy-1,1-dimethyl-ethyl)-isoxazol-5-yl]-amide] | 50
23 | CC(C)(C)c1cc(NC(=O)[C@@H]2CCCN2C2CCC2)on1 [(S)-1-Cyclobutyl-pyrrolidine-2-carboxylic acid (3-tert-butyl-isoxazol-5-yl)-amide] | 6.28
24 | CC(C)(C)c1nnc(NC(=O)[C@@H]2CCCN2C2CCC2)s1 [(S)-1-Cyclobutyl-pyrrolidine-2-carboxylic acid (5-tert-butyl-1,3,4-thiadiazol-2-yl)-amide] | 255
25 | CC(C)(C)c1cc(NC(=O)[C@@H]2CCCN2CC2C=CCCC2)on1 (stereo partly drawn) [(S)-1-Cyclohex-2-enylmethyl-pyrrolidine-2-carboxylic acid (3-tert-butyl-isoxazol-5-yl)-amide] | 0.072
26 | CC(C)(C)c1cc(NC(=O)[C@@H]2CCCN2C2CCCCC2)on1 [(S)-1-Cyclohexyl-pyrrolidine-2-carboxylic acid (3-tert-butyl-isoxazol-5-yl)-amide] | 0.173
27 | CC(C)(C)c1nnc(NC(=O)[C@@H]2CCCN2C2CCCCC2)s1 [(S)-1-Cyclohexyl-pyrrolidine-2-carboxylic acid (5-tert-butyl-1,3,4-thiadiazol-2-yl)-amide] | 30
28 | CC(C)(C)c1cc(NC(=O)[C@@H]2CCCN2CC2CCCCC2)on1 [(S)-1-Cyclohexylmethyl-pyrrolidine-2-carboxylic acid (3-tert-butyl-isoxazol-5-yl)-amide] | 0.079
29 | CC(C)(C)c1cc(NC(=O)[C@@H]2CCCN2C2CCCC2)on1 [(S)-1-Cyclopentyl-pyrrolidine-2-carboxylic acid (3-tert-butyl-isoxazol-5-yl)-amide] | 2.39
30 | CC(C)(C)c1nnc(NC(=O)[C@@H]2CCCN2C2CCCC2)s1 [(S)-1-Cyclopentyl-pyrrolidine-2-carboxylic acid (5-tert-butyl-1,3,4-thiadiazol-2-yl)-amide] | 165
31 | CC(C)(C)Cc1cc(NC(=O)[C@@H]2CCCN2C2CCCC2)on1 [(S)-1-Cyclopentyl-pyrrolidine-2-carboxylic acid [3-(2,2-dimethyl-propyl)-isoxazol-5-yl]-amide] | 113
32 | CC(C)(C)c1cc(NC(=O)[C@@H]2CCCN2C2CC2)on1 [(S)-1-Cyclopropyl-pyrrolidine-2-carboxylic acid (3-tert-butyl-isoxazol-5-yl)-amide] | 3.19
33 | CC(C)(C)c1cc(NC(=O)[C@@H]2CCCN2CC2CC2)on1 [(S)-1-Cyclopropylmethyl-pyrrolidine-2-carboxylic acid (3-tert-butyl-isoxazol-5-yl)-amide] | 11.4
34 | CC(C)(C)c1nnc(NC(=O)[C@@H]2CCCN2CC2CC2)s1 [(S)-1-Cyclopropylmethyl-pyrrolidine-2-carboxylic acid (5-tert-butyl-1,3,4-thiadiazol-2-yl)-amide] | 340
35 | CC(C)(C)Cc1cc(NC(=O)[C@@H]2CCCN2CC2CC2)on1 [(S)-1-Cyclopropylmethyl-pyrrolidine-2-carboxylic acid [3-(2,2-dimethyl-propyl)-isoxazol-5-yl]-amide] | 22.3
36 | CC(C)N1CCC[C@H]1C(=O)Nc1cc(C(C)(C)C)no1 [(S)-1-Isopropyl-pyrrolidine-2-carboxylic acid (3-tert-butyl-isoxazol-5-yl)-amide] | 163
37 | CC(C)(C)c1cc(NC(=O)[C@]2(C)CCCN2c2ccc(C(F)(F)F)cc2)no1 [(S)-2-Methyl-1-(4-trifluoromethyl-phenyl)-pyrrolidine-2-carboxylic acid (5-tert-butyl-isoxazol-3-yl)-amide] | 0.199

Same assay, conditions: CHO cells expressing human CB2R; inhibition of forskolin-stimulated cAMP synthesis; mean; read-out: CB2 CAMP @ EC50 nM (mean)

Row | SMILES | EC50 [nM]
38 | O=C(Nc1nc2cc(F)ccc2[nH]1)[C@@H]1CCCN1C1CCOCC1 [(S)-1-(Tetrahydro-pyran-4-yl)-pyrrolidine-2-carboxylic acid (5-fluoro-1H-benzimidazol-2-yl)-amide] | 391
39 | O=C(Nc1nc2cc(Cl)ccc2s1)[C@@H]1CCCN1CC1CCOCC1 [(S)-1-(Tetrahydro-pyran-4-ylmethyl)-pyrrolidine-2-carboxylic acid (5-chloro-benzothiazol-2-yl)-amide] | 3.14
40 | CC(C)(C)c1nnc(NC(=O)[C@@H]2CCCN2C2CC2)s1 [(S)-1-Cyclopropyl-pyrrolidine-2-carboxylic acid (5-tert-butyl-1,3,4-thiadiazol-2-yl)-amide] | 109
41 | CC(C)(C)c1cc(NC(=O)[C@@H]2CCCN2c2ncccn2)on1 [(S)-1-Pyrimidin-2-yl-pyrrolidine-2-carboxylic acid (3-tert-butyl-isoxazol-5-yl)-amide] | 109
